Source: patent US20080267935A1, “AraC in combination with a cytokine-secreting cell and methods of use thereof” (Cell Genesys, Inc., priority 2007, published 2008)
Where two headings read alike, the source gives them in different places.

Assays:
C1498-luc tumor cells = assay: C1498-luc acute myeloid leukemia tumor model, survival and tumor burden; format: in vivo, C57BL/6 mice
Description: To assess the in vivo progression of systemic disease, 2.5×10^4 of C1498-luc cells were injected intravenously via tail vein into C57BL/6 mice, their syngeneic host, and the mice were examined every few days for the presence of luminescent signal via live imaging (FIG. 1A). […] A total photon count of 5×10^8 from an individual tumor bearing animal was used as the end point of life expectancy.
The efficacy of the combination of cytosine arabinoside (AraC) and GM-CSF secreting cells was evaluated by carrying out animal studies in the syngeneic C1498-luc tumor model. In this model, following challenge with C1498-luc tumor cells as described above, the mice were randomized into control and individual treatment groups, as detailed in the examples. For anti-tumor memory assessment, animals which had previously received AraC in combination with GM-CSF-secreting cells were rechallenged with a lethal dose of C1498-luc cells approximately 100 days after receiving the combination therapy. A typical study in the C1498-luc tumor model makes use of at least 6 and generally 10-15 mice per group in order to obtain statistically significant results. Statistical significance is evaluated using the Student's t-test.
Tumor Model. Female C57Bl/6 mice were challenged with C1498-luc cells via intra-tail-vein injections with 2.5×10^4 inocula. The mice were prepared for in vivo bioluminescence imaging 5 to 10 minutes post injection to confirm the initial trafficking of the tumor cells from tail vein to the lungs. Briefly, the mice were injected i.p. with 1.5 mg/g luciferin substrate (Xenogen Corp., Alameda, Calif.). Fifteen minutes later, the mice were anesthetized for in vivo bioluminescence imaging analysis. […] The animals were monitored by in vivo imaging every 5 to 7 days throughout the study to monitor the systemic progression of the tumor. Individual animals were euthanized when in vivo total photon counts exceeded 5×10^8 and/or when determined to be clinically paralyzed.
In Vivo Treatment. […]

[1] = design: species or system mice; details: mouse, in vivo
Description: Hematologic and Phenotypic Analysis. Mice were injected intraperitoneally with AraC using the treatment regimen described below. Peripheral blood was collected by retro-orbital puncture into EDTA-coated capillary tubes on days 1, 2, 3, 4, 6, 8 and 11. Hematologic analysis was performed by IDEXX pre-clinical Research Services (West Sacramento, Calif.).
Prior to conducting the in vivo efficacy studies in the leukemia tumor models, the hematological toxicity of AraC was determined. The animals received three i.p. injections of 100 mg/kg AraC (volume of injection: 200 μl) in 10 hour-increments. This treatment regimen is equal to a total dose of 900 mg/m^2 and is within the total dose range of 700 to 1400 mg/m^2 used clinically in human patients. Neutropenia and lymphopenia are known to be the primary dose-limiting toxicity observed in patients, so AraC treated mice were monitored for absolute neutrophil and lymphocyte counts. The results are shown in FIG. 2A and FIG. 2B, respectively. After the three AraC administrations, peripheral blood was collected by retro-orbital puncture into EDTA-coated capillary tubes on days 1, 2, 3, 4, 6, 8 and 11 and analyzed for neutropenia. The absolute neutrophil count in the animals dropped to 45 neutrophils/μl, by day 4, rebounded to control level at 600 neutrophils/μl, by day 6 and remained at a steady level of around 600 neutrophils/μl, thereafter (FIG. 2A), which is similar to untreated control animals.

[2] = tested on: Acute myeloid leukemias (AMLs); details: cited from earlier work; for complete remissions: remission induction

Nc1ccn([C@@H]2O[C@H](CO)[C@@H](O)[C@@H]2O)c(=O)n1 [AraC, 1-β-D-arabinofuranosylcytosine]
mice surviving for longer than 150 days post-challenge (C1498-luc tumor cells; C1498-luc tumor bearing mice): 30%
Number of tumor free animals 150 days post challenge (C1498-luc tumor cells; monotherapy): 0/10
Median Survival Time (MST) (C1498-luc tumor cells; monotherapy, AraC 3 i.p. injections of 100 mg/kg one day post challenge, or 1×10^6 irradiated C1498.GM s.c. day 7): 61 days
absolute neutrophil count [1]: 600 neutrophils/μl
drop of lymphocyte counts [1]: greater than 40%
absolute neutrophil count ([1]; ip, 100 mg/kg): 45 neutrophils/μl
recovery of lymphocyte counts ([1]; ip, 100 mg/kg): rebounded by day 6
dose-limiting toxicities ([2]; patients): severe neutropenia and lymphopenia
complete remissions ([2]; patients older than 60): −50%
complete remissions ([2]; younger adults): ~75%
